Laboratory results published in US20100197650A1, “COMPOSITIONS AND METHODS OF TREATMENT COMPRISING CEFTAROLINE” (FOREST LABORATORIES HOLDINGS LTD., priority 2008, published 2010).
Converted amounts (≈) assume the structure as drawn. Read-outs that look alike come from different tables or passages of the source.

Legend:
Klebsiella pneumoniae = assay: MIC, broth microdilution (Example 1); format: cell-based; conditions: Klebsiella pneumoniae
Protocol: (§1) Stock solutions of all antibacterial agents were prepared at 80-fold (80×) the final target concentration in the appropriate solvent and the solution was allowed to stand for 60 minutes. All antibacterial agents were in solution under these conditions. The final drug concentrations in the FIC assay plates were set to bracket the MIC value of each agent for each test organism, unless the strain was totally resistant to the test agent.
(§2) The test organisms were originally received from clinical sources, or from the American Type Culture Collection. Upon receipt, the isolates were streaked onto the appropriate growth medium: Chocolate Agar for H. influenzae, Tryptic Soy Agar II (Becton Dickinson, Sparks, Md.) supplemented with 5% defibrinated sheep blood for streptococci, and unsupplemented Tryptic Soy Agar II for all other organisms. Colonies were harvested from these plates and a cell suspension was prepared in Tryptic Soy Broth (Becton Dickinson) containing cryoprotectant. Aliquots were then frozen at −80° C. On the day prior to assay, the frozen seeds of the organisms to be tested in that session were thawed and streaked for isolation onto the appropriate agar medium plates and incubated overnight at 35° C.
(§3) The test medium for H. influenzae was Haemophilus Test Medium. Streptococci were tested in Mueller Hinton II Broth (Becton Dickinson; Lot 6235472) supplemented with 2% lysed horse blood (Cleveland Scientific, Bath, Ohio; Lot H88621). All other organisms were tested in Mueller Hinton II Broth (Becton Dickinson, Lot 6235472). The broth was prepared at 1.05× normal weight/volume to offset the 5% volume of the drugs in the final test plates.
(§4) In order to select the proper test concentrations for each drug combination, minimal inhibitory concentration (MIC) values were first determined using the broth microdilution method previously described (Clinical and Laboratory Standards Institute. Methods for Dilution Antimicrobial Susceptibility Tests for Bacteria That Grow Aerobically; Approved Standard—Seventh Edition. Clinical and Laboratory Standards Institute document M7-A7 [ISBN 1-56238-587-9]. Clinical and Laboratory Standards Institute, 940 West Valley Road, Suite 1400, Wayne, Pa. 19087-1898 USA, 2006).
(§5) The wells of standard 96-well microdilution plates (Falcon 3918) were filled with 150 μL of 100% DMSO using the Multidrop 384. These plates were used to prepare the drug “mother plates” which provided the serial drug dilutions for the drug combination plates. The Biomek 2000 was used to transfer 150 μl of each stock solution (80×) from the wells in Column 1 of a deep well plate to the corresponding wells in Column 1 of the mother plate and to make seven 2-fold serial dilutions. Two mother plates, one for each drug, were combined to form a “checkerboard” pattern by transfer of equal volumes (using a multi-channel pipette) to the drug combination plate. Row H and Column 8 each contained serial dilutions of one of the agents alone for determination of the MIC.
(§6) Plates were stacked 3 high, covered with a lid on the top plate, placed in plastic bags, and incubated at 35° C. for approximately 20 hours. Following incubation, the microplates were removed from the incubator and viewed from the bottom using a ScienceWare plate viewer. Prepared reading sheets were marked for the MIC of drug 1 (row H), the MIC of drug 2 (column 8) and the wells of the growth-no growth interface.

Pseudomonas aeruginosa = assay: MIC, broth microdilution (Example 1); format: cell-based
Protocol: as §1, §2, §3, §4, §5, §6

Staphylococcus aureus = assay: MIC, broth microdilution (Example 1); format: cell-based
Protocol: as §1, §2, §3, §4, §5, §6

ESBL-producing E. coli = assay: Susceptibility testing MIC/MBC, broth microdilution (Example 2); format: cell-based, Escherichia coli; conditions: for MBC range / MIC range: E. coli (10) clinical isolates; for MBC / MIC: Escherichia coli
[1] = test system: ESBL-producing Klebsiella pneumoniae; assay: as above; format: cell-based; conditions: for MBC range / MIC range: K. pneumonia (10) clinical isolates; for MBC / MIC: Klebsiella pneumoniae
[2] = test system: AmpC-derepressed Enterobacter cloacae; assay: microbe, parasite or virus in culture; format: cell-based; conditions: for MBC range / MIC range: E. cloacae (10) clinical isolates; for MBC / MIC: Enterobacter cloacae
P. aeruginosa = assay: Susceptibility testing MIC/MBC, broth microdilution (Example 2); format: cell-based, Pseudomonas aeruginosa; conditions: for MBC range / MIC range: P. aeruginosa (20) clinical isolates; for MBC / MIC: Pseudomonas aeruginosa
[3] = test system: clinical Enterobacteriacae and P. aeruginosa isolates; assay: Susceptibility testing (Example 2), summary over species; format: cell-based; conditions: Pseudomonas aeruginosa, read-out: MIC values
Acinetobacter baumannii = assay: MIC, broth microdilution (Example 1); format: cell-based
Protocol: as §1, §2, §3, §4, §5, §6

Streptococcus pneumoniae = assay: MIC, broth microdilution (Example 1); format: cell-based
Protocol: as §1, §2, §3, §4, §5, §6

In the case of `C[C@@H](O)[C@H]1C(=O)N2C(C(=O)O)=C(S[C@@H]3CN[C@H](C(=O)N(C)C)C3)[C@H](C)[C@H]12` [Meropenem], the MIC (Klebsiella pneumoniae; K. pneumoniae 1468 (ESBL), read-out: MIC) is reported as 0.06 µg/mL, the MIC (Pseudomonas aeruginosa; P. aeruginosa 2555) is reported as 4 µg/mL and the MIC (Pseudomonas aeruginosa; P. aeruginosa 2559) is reported as 0.12 µg/mL. The MIC (Staphylococcus aureus; S. aureus 2296 (CA-MRSA)) was >16^a^ μg/mL, the MIC (Staphylococcus aureus; Staphylococcus aureus, MRSA, S. aureus 2202 (CA-MRSA), read-out: MIC) was 4 µg/mL and the MIC (Staphylococcus aureus; Staphylococcus aureus, MRSA, S. aureus 2296 (CA-MRSA), read-out: MIC) was over 16 µg/mL. For the same compound, the MBC range (ESBL-producing E. coli) was 0.06 to 0.125 µg/mL, the MIC range (ESBL-producing E. coli) was 0.03 to 0.06 µg/mL and the MBC (ESBL-producing E. coli; E. coli isolate no. 5401, read-out: MBC) was 0.06 µg/mL (≈ 0.156 µM). For the same compound, the MIC (ESBL-producing E. coli; E. coli isolate no. 5401, read-out: MIC) was 0.06 µg/mL (≈ 0.156 µM), the MBC (ESBL-producing E. coli; E. coli isolate no. 5411, read-out: MBC) was 0.06 µg/mL (≈ 0.156 µM) and the MIC (ESBL-producing E. coli; E. coli isolate no. 5411, read-out: MIC) was 0.06 µg/mL (≈ 0.156 µM). The MBC range [1] was 0.06 to 0.125 µg/mL, the MIC range [1] was 0.03 to 0.06 µg/mL and the MBC ([1]; K. pneumonia isolate no. 5427, read-out: MBC) was 0.06 µg/mL (≈ 0.156 µM). For the same compound, the MIC ([1]; K. pneumonia isolate no. 5427, read-out: MIC) was 0.06 µg/mL (≈ 0.156 µM), the MBC ([1]; K. pneumonia isolate no. 5436, read-out: MBC) was 0.06 µg/mL (≈ 0.156 µM) and the MIC ([1]; K. pneumonia isolate no. 5436, read-out: MIC) was 0.06 µg/mL (≈ 0.156 µM). It also gave an MBC range [2] of 0.03 to 0.5 µg/mL, an MIC range [2] of 0.03 to 0.25 µg/mL and an MBC ([2]; E. cloacae isolate no. 4073) of 0.5 µg/mL (≈ 1.3 µM). For the same compound, the MIC ([2]; E. cloacae isolate no. 4073) was 0.25 µg/mL (≈ 0.652 µM), the MBC ([2]; E. cloacae isolate no. 5420) was 0.125 µg/mL (≈ 0.326 µM) and the MIC ([2]; E. cloacae isolate no. 5420) was 0.125 µg/mL (≈ 0.326 µM). It also gave an MBC range (P. aeruginosa) of 0.125 to 32 µg/mL, an MIC range (P. aeruginosa) of 0.125 to 16 µg/mL and an MBC (P. aeruginosa; P. aeruginosa isolate no. 796, read-out: MBC) of 2 µg/mL (≈ 5.22 µM). It also gave an MIC (P. aeruginosa; P. aeruginosa isolate no. 796, read-out: MIC) of 1 µg/mL (≈ 2.61 µM), an MBC (P. aeruginosa; P. aeruginosa isolate no. 956, read-out: MBC) of 2 µg/mL (≈ 5.22 µM) and an MIC (P. aeruginosa; P. aeruginosa isolate no. 956, read-out: MIC) of 0.25 µg/mL (≈ 0.652 µM). It also gave an MBC (P. aeruginosa; P. aeruginosa isolate no. 1019, read-out: MBC) of 2 µg/mL (≈ 5.22 µM), an MIC (P. aeruginosa; P. aeruginosa isolate no. 1019, read-out: MIC) of 1 µg/mL (≈ 2.61 µM) and an MBC (P. aeruginosa; P. aeruginosa isolate no. 1037, read-out: MBC) of 1 µg/mL (≈ 2.61 µM). The MIC (P. aeruginosa; P. aeruginosa isolate no. 1037, read-out: MIC) was 0.5 µg/mL (≈ 1.3 µM) and the MIC ([3]; Enterobacteriacae (30 isolates)) was at most 4 µg/mL.

`CN(C)c1cc(NC(=O)CNC(C)(C)C)c(O)c2c1C[C@H]1C[C@H]3[C@H](N(C)C)C(O)=C(C(N)=O)C(=O)[C@@]3(O)C(O)=C1C2=O` [Tigecycline] was tested, and the MIC (Acinetobacter baumannii; A. baumannii 2602) was 0.06 µg/mL, the MIC (Acinetobacter baumannii; Acinetobacter baumannii) was 0.06 µg/mL and the MIC (Klebsiella pneumoniae) was 0.25 µg/mL. It also gave an MIC (Staphylococcus aureus; Staphylococcus aureus, MRSA, S. aureus 0765 (MRSA)) of 0.25 µg/mL, an MIC (Staphylococcus aureus; Staphylococcus aureus, MRSA, S. aureus 2053 (MRSA)) of 0.5 µg/mL and an MIC (Streptococcus pneumoniae; S. pneumoniae 0884 (PRSP)) of 0.03 µg/mL. For the same compound, the MIC (Streptococcus pneumoniae; Streptococcus pneumoniae, PRSP) was 0.03 µg/mL, the MBC range (ESBL-producing E. coli) was 0.06 to 4 µg/mL and the MIC range (ESBL-producing E. coli) was 0.06 to 0.5 µg/mL. It also gave an MBC (ESBL-producing E. coli; E. coli isolate no. 5401) of 1 µg/mL (≈ 1.71 µM), an MIC (ESBL-producing E. coli; E. coli isolate no. 5401) of 0.5 µg/mL (≈ 0.854 µM) and an MBC (ESBL-producing E. coli; E. coli isolate no. 5411) of 0.5 µg/mL (≈ 0.854 µM). For the same compound, the MIC (ESBL-producing E. coli; E. coli isolate no. 5411) was 0.125 µg/mL (≈ 0.213 µM), the MBC range [1] was 0.5 to 8 µg/mL and the MIC range [1] was 0.125 to 1 µg/mL. For the same compound, the MBC ([1]; K. pneumonia isolate no. 5427) was 2 µg/mL (≈ 3.41 µM), the MIC ([1]; K. pneumonia isolate no. 5427) was 0.5 µg/mL (≈ 0.854 µM) and the MBC ([1]; K. pneumonia isolate no. 5436) was 1 µg/mL (≈ 1.71 µM). The MIC ([1]; K. pneumonia isolate no. 5436) was 0.125 µg/mL (≈ 0.213 µM), the MBC range [2] was 0.5 to 4 µg/mL and the MIC range [2] was 0.25 to 2 µg/mL. The MBC ([2]; E. cloacae isolate no. 4073) was 2 µg/mL (≈ 3.41 µM), the MIC ([2]; E. cloacae isolate no. 4073) was 0.5 µg/mL (≈ 0.854 µM) and the MBC ([2]; E. cloacae isolate no. 5420) was 2 µg/mL (≈ 3.41 µM). For the same compound, the MIC ([2]; E. cloacae isolate no. 5420) was 0.5 µg/mL (≈ 0.854 µM), the MBC range (P. aeruginosa) was 8 to 256 µg/mL and the MIC range (P. aeruginosa) was 2 to 32 µg/mL. It also gave an MBC (P. aeruginosa; P. aeruginosa isolate no. 796) of 32 µg/mL (≈ 54.6 µM), an MIC (P. aeruginosa; P. aeruginosa isolate no. 796) of 32 µg/mL (≈ 54.6 µM) and an MBC (P. aeruginosa; P. aeruginosa isolate no. 956) of 128 µg/mL (≈ 219 µM). The MIC (P. aeruginosa; P. aeruginosa isolate no. 956) was 16 µg/mL (≈ 27.3 µM), the MBC (P. aeruginosa; P. aeruginosa isolate no. 1019) was 8 µg/mL (≈ 13.7 µM) and the MIC (P. aeruginosa; P. aeruginosa isolate no. 1019) was 2 µg/mL (≈ 3.41 µM). The MBC (P. aeruginosa; P. aeruginosa isolate no. 1037) was 32 µg/mL (≈ 54.6 µM), the MIC (P. aeruginosa; P. aeruginosa isolate no. 1037) was 8 µg/mL (≈ 13.7 µM) and the MIC [3] was at most 8 µg/mL.
